Test results taken from patent publication US9233071B2, “Methods for treating retinopathy with extended therapeutic effect” (Allergan, Inc., priority 2004, dated 2016).

Experiments:
[1] = tested on: glaucoma; settings: after stopping topical medication; cited from earlier work
[2] = tested on: patients with glaucoma; experiment: Loss of IOP lowering upon cessation of chronic topical anti-glaucoma medication (Example A); assay type: in vivo, human; settings: for mean IOP from baseline on day 28: day 28, after four weeks of topical medication; for mean IOP from baseline on day 30: day 30, after 2 days with no medication
Description: To examine loss or reduction of a therapeutic effect (i.e. IOP lowering) upon cessation of chronic medication administration used to treatment a chronic ocular condition, three different populations of patients with glaucoma were examined.
1. A population of twenty patients with glaucoma was examined.

[3] = 0.1% ophthalmic suspension, 1 drop 4 times a day (approximately 200 μg per day); cited from earlier work
[4] = tested on: VEGF165-induced retinal vasculopathy; experiment: Remnant effect after intravitreal triamcinolone acetonide, VEGF165-induced retinal vasculopathy (Example 9); assay type: in vivo, Dutch-belted rabbits; settings: 48 hours after VEGF165; 4 mg TA removed after one minute
Procedure: An experiment was carried out which determined existence of a remnant effect (i.e. a therapeutic effect of the active agent when a therapeutic amount of the active agent was not longer present) of intravitreal triamcinolone. Six Dutch-belted rabbits were divided into two groups of three each. After standard pars plana vitrectomy, one group received 4 mg of the glucocorticoid triamcinolone acetonide (TA) in a 0.1 ml volume (Kenalog® 40), and the other group received 0.1 ml of a 5% PLGA (poly lactic/glycolic acid) solution. One minute later the TA or PLGA was removed with a subtotal vitrectomy and soft tip needle. Forty-eight hours after the surgery VEGF165 (500 ng/50 μl) was injected intravitreally via a 29 gauge needle to induce retinal vasculopathy and assess a pharmacological action of any remnant effect of either TA or PLGA. Assessment of retinal color fundus imaging, fluorescein angiography (FA), and fluorometry was made upon VEGF administration and 48 hours following such administration to assess leak from the retina vasculature as a result of VEGF165 administration, and the effect of either TA or PLGA on such leakage.

Brc1c(NC2=NCCN2)ccc2nccnc12 [brimonidine]
washout period (return to baseline IOP) of topical anti-glaucoma medication [1]: two to four and five
mean IOP from baseline on day 14 ([2]; day 14, after 14 days of topical medication): −2 mm Hg
mean IOP from baseline on day 15 ([2]; day 15, after 24 hours with no medication): −0.8 mm Hg

CC[C@@H]1C(=O)OC[C@@H]1Cc1cncn1C [pilocarpine]
washout period (return to baseline IOP) of topical anti-glaucoma medication [1]: about 48 hours

C[C@@H]1C[C@H]2[C@@H]3CCC4=CC(=O)C=C[C@]4(C)[C@@]3(F)[C@@H](O)C[C@]2(C)[C@@]1(O)C(=O)CO [dexamethasone]
share of the topical dose that reaches the anterior segment [3]: about 1%

CCN[C@H]1C[C@H](C)S(=O)(=O)c2sc(S(N)(=O)=O)cc21 [dorzolamide]
washout period (return to baseline IOP) of topical anti-glaucoma medication [1]: two to four

CNC[C@H](O)c1ccc(O)c(O)c1 [epinephrine]
washout period (return to baseline IOP) of topical anti-glaucoma medication [1]: about three

CC1(C)O[C@@H]2C[C@H]3[C@@H]4CCC5=CC(=O)C=C[C@]5(C)[C@@]4(F)[C@@H](O)C[C@]3(C)[C@]2(C(=O)CO)O1 [TA, triamcinolone acetonide]
Fluorophotometry area under the curve, change from baseline [4]: 3±65%

CCNC(=O)CCC/C=C\C[C@@H]1[C@@H](/C=C/[C@@H](O)CCc2ccccc2)[C@H](O)C[C@@H]1O [Lumigan, Bimatoprost]
mean IOP from baseline on day 28 [2]: −8 mm Hg
mean IOP from baseline on day 30 [2]: −6 mm Hg

CC(C)(C)NC[C@H](O)COc1nsnc1N1CCOCC1 [timolol]
mean IOP from baseline on day 28 [2]: −4 mm Hg
mean IOP from baseline on day 30 [2]: −2 mm Hg
